For orientation: IC50 means the midpoint of a concentration-inhibition curve. The term inhibition denotes the drop in the measured response relative to a control, in per cent.

IC50 and inhibition data for ten molecules are collected here from patent US5646316A, “Bile acid inhibitors of metalloproteinase enzymes” (OsteoArthritis Sciences, Inc., priority 1995, dated 1997).

Like-named read-outs stand apart in the source and are kept apart here.

One experiment concerns the target stromelysin (Homo sapiens, UniProt P08254). In words: Assay of Stromelysin Inhibition Activity (fluorogenic substrate hydrolysis). Particulars: for IC50: 60 minutes incubation; for inhibition at 10 µM: read-out: percent inhibition of stromelysin. The format is biochemical. The method, then: Stromelysin was first activated by trypsin. This was done by preparing a reaction mixture in B-150 (B-150 consists of 150 mM NaCl, 20 mM Tris at pH 7.8 and 0.02% sodium azide) containing a final concentration of 4 μg/mL trypsin, 1.48 μg/mL of stromelysin, and 3.15 mM CaCl2. The reaction was incubated for 30 minutes at 37° C. and then quenched by adding soybean trypsin inhibitor to a final concentration of 43.6 μg/mL. ZnCl2 was added to the reaction mixture for a total concentration of 0.24 μM.
Following preparation of the solution of activated stromelysin, assay solutions were prepared for each inhibitor being tested. A control was also prepared. First, […] of activated stromelysin (about 45 μL from the solution of activated stromelysin) were aliquotted per assay tube. A 2.5 mM solution in 100% dimethyl sulfoxide (DMSO) was prepared for each inhibitor being tested and 1 μL from each inhibitor solution was added to one of the assay tubes. In addition, 1 μL of 100% DMSO was added to the control assay tube. All assay tubes were then pre-incubated for 5 minutes.
5 μL of a previously prepared 50 μM solution of substrate in 15% DMSO were added to each assay tube. The substrate was a methoxycumarin developed by Knight et al. FEBS Lett. 296:263-66 (1992). The tubes were then incubated for 60 minutes, at which time the reaction was stopped with the addition of 750 μL of 0.1M NaAc pH 4.0 buffer.
Substrate hydrolysis was assessed by fluorescence using a slit width of 10:10, excitation at 328 nm and emission at 393 nm. The results of these assays are listed in Table I as percent inhibition at 10 μM of the bile acid provided compound tested or as the IC50.

The test system of experiment [1] is bovine cartilage explants. Description: Bovine Cartilage Explant Assay (35S-GAG release, rhIL-1α stimulated; tissue culture). The format is cell-based. To be noted: Bos taurus, read-out: percent inhibition of extracellular matrix damage, Tissue Culture. The text has this:
A tissue culture assay was used to measure the ability of the compounds of the present invention to slow the degradation of the extracellular matrix by metalloproteinases. This assay measured the amount of ^35 S-glycosaminoglycan (^35 S-GAG) released from labeled bovine cartilage explants.
Knee joints from a 1 to 3 week old calf were obtained immediately after sacrifice from the Abattoir and then transported on ice. The intact joints were washed well with tap water and soaked in 50% (v/v) Povidine iodine solution, obtained from Burre National, Inc., Baltimore, Md. All subsequent steps were performed in a laminar flow tissue culture hood using standard sterile technique. The joint was immobilized in a shank holder and the joint capsule was cut open to expose the articular cartilage. Cartilage explant plugs, approximately 15 mg wet weight, were removed from the flat articulating surfaces in the lower-most region of the knee joint using a sterile steel cork-borer and collected in a 250 mL roller bottle containing about 100 mL fresh Delbecco's minimum essential medium (DMEM), obtained from Gibco BRC, Life Technologies, Gaithersburg, Md., containing 4.5 g/1 (D)-glucose and (L)-glutamine, without sodium pyruvate. The fresh media also contained enough Hepes buffer and sodium bicarbonate such that the pH was about 7.4. The media was then further supplemented just before use with 100 units Penicillin, 100 μg Streptomycin, and 50 μg (L)-ascorbic acid per mL of medium.
Once collected, the explant plugs were washed four times with 50 mL fresh DMEM. The plugs were then placed in the incubator for a minimum of 1 hour to equilibrate, before proceeding to make disks from the articulating surface of each plug. A 1 mm thick disk was sliced from individual plugs from the end that was the articulating surface of the joint. The plug was held steady in the sterile template (4 mm diameter×1.5 mm deep) using sterile forceps. A scalpel blade was used to carefully slice off the disk. Only the superficial articulating surface responded well in culture.
Individual disks obtained were transferred to a tissue culture flask containing about 100 mL fresh media. The flask containing the disks was placed in an incubator at 37° C. (with 5% CO2, 95% air) and allowed to equilibrate overnight and at least one additional day before labeling. When ready to label, the old media was replaced with 50 mL fresh media containing about 500 μCi ^35 S-Sodium Sulfate. The plugs were labeled in bulk for about 48 hours. The next morning, the "hot" media was removed and replaced with fresh "cold" media. The disks were again allowed to equilibrate overnight before being used for actual experiments.
The media in which the disks were stored was changed immediately prior to performing the assay. The disks were then returned to the incubator until the test media and the two control media had been prepared. The test media consisted of a bile acid or bile acid derivative (50 μM) being tested for its ability to inhibit extracellular matrix degradation and concomitant recombinant human Interleukin rhIL-1α (5 ng/mL) in fresh DMEM solution. The control media were identical to the test media, except that the first control media lacked rhIL-1α and the second control media lacked an inhibitor, i.e. a bile acid or bile acid derivative. 250 μL of each of the test and control media were transferred to separate 96-well TC plates. Flamed forceps were used to transfer a disk from the incubator to each 96-well TC plates that had been filled with either the test media or one of the two control media.
The TC plates were then placed in the incubator and cultured for 3-4 days (initial incubation with rhIL-1α alpha takes at least 3 days to stimulate endogenous metalloproteinases). A 50 μL aliquot of media from each TC plate was saved and counted. The rest of the media was removed with a suction device.
The cartilage disks from each TC plate were also saved for counting. […]

Where [2] appears, read: at 50 μM, rhIL-1α 5 ng/mL, 3-4 days.

Chain of stromelysin (P08254 100-477): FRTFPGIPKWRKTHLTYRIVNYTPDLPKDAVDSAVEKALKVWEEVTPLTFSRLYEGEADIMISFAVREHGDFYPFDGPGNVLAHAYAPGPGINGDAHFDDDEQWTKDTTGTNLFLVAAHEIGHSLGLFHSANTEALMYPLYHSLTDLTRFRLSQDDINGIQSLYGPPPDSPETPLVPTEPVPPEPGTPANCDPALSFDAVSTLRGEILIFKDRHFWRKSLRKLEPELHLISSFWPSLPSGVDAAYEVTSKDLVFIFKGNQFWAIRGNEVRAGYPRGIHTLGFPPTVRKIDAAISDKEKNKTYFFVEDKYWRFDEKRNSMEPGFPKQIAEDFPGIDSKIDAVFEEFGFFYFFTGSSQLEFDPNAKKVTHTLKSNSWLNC

With `C[C@H](CCC(=O)O)[C@H]1CC[C@H]2[C@@H]3CC[C@@H]4C[C@H](O)CC[C@]4(C)[C@H]3CC[C@]12C` [Compound 1, Lithocholic acid, reference compound], the IC50 at stromelysin came out at 38 µM. Further, the inhibition at 50 µM in experiment [1] (setting [2]) is 68%.
For the molecule `C[C@H](CCC(=O)NCCC[N+](C)(C)CCCS(=O)(=O)[O-])[C@H]1CC[C@H]2[C@@H]3[C@H](O)C[C@@H]4C[C@H](O)CC[C@]4(C)[C@H]3C[C@H](O)[C@]12C` [Compound 8, 3-[(3-cholamidopropyl)dimethylammonio)-1-propanesulfonate, reference compound], on stromelysin, the inhibition at 10 µM was found to be 26%. Moreover, in experiment [1], the inhibition at 50 µM is -120%.
As to `CC(C)C[C@H](NC(=O)CC[C@@H](C)[C@H]1CC[C@H]2[C@@H]3CC[C@@H]4C[C@H](O)CC[C@]4(C)[C@H]3CC[C@]12C)C(=O)NO` [Compound 9, Lithocholyl-(L)-Leucine Hydroxamic Acid], at stromelysin, half-maximal inhibition (IC50) required 1 µM. Also, in experiment [1] (setting [2]), the inhibition at 50 µM came out at 84%.
In the same order, the values of `CC(C)C[C@H](NC(=O)CC[C@@H](C)[C@H]1CC[C@H]2[C@@H]3[C@H](O)C[C@@H]4C[C@H](O)CC[C@]4(C)[C@H]3CC[C@]12C)C(=O)NO` [Compound 10, Chenodeoxycholyl-(L)-Leucine Hydroxamic Acid] are 5 µM and 85%.
Regarding `C[C@H](CCC(=O)NOCc1ccccc1)[C@H]1CC[C@H]2[C@@H]3[C@H](O)C[C@@H]4C[C@H](O)CC[C@]4(C)[C@H]3CC[C@]12C` [Compound 12, Chenodeoxycholyl-O-Benzylhyroxamate], the inhibition at 10 µM on stromelysin (at 10 μM of compound) is 5%. Also, in experiment [1] (setting [2]), the inhibition at 50 µM is 6%.
In the same order, the values of `C[C@H](CCC(=O)NO)[C@H]1CC[C@H]2[C@@H]3CC[C@@H]4C[C@H](O)CC[C@]4(C)[C@H]3CC[C@]12C` [Compound 13, Lithocholylhydroxamic Acid] are 56% and 44%.
In the same order, the values of `C[C@H](CCC(=O)N[C@@H](Cc1ccccc1)C(=O)NO)[C@H]1CC[C@H]2[C@@H]3CC[C@@H]4C[C@H](O)CC[C@]4(C)[C@H]3CC[C@]12C` [Compound 15, Lithocholyl-(L)-Phenylalanine Hydroxamic Acid] are 85% and 54%.
For `C[C@H](CCC(=O)N[C@@H](Cc1ccccc1)C(=O)NO)[C@H]1CC[C@H]2[C@@H]3[C@H](O)C[C@@H]4C[C@H](O)CC[C@]4(C)[C@H]3CC[C@]12C` [Compound 16, Chenodeoxycholyl-(L)-Phenylalanine Hydroxamic Acid] the same measures were 80% and 94%.
Molecule `CCOC(=O)[C@H](CS)NC(=O)[C@H](Cc1ccccc1)NC(=O)CC[C@@H](C)[C@H]1CC[C@H]2[C@@H]3CC[C@@H]4C[C@H](O)CC[C@]4(C)[C@H]3CC[C@]12C` [Compound 19, Lithocholyl-(L)-Phenylalanyl-(L)-Cysteine Ethyl Ester] returned an IC50 against stromelysin of 2 µM. Besides, the inhibition at 50 µM in experiment [1] (setting [2]) is 32%.
As for `C[C@H](CCC(=O)N[C@@H](Cc1ccccc1)C(=O)NC1CCSC1=O)[C@H]1CC[C@H]2[C@@H]3CC[C@@H]4C[C@H](O)CC[C@]4(C)[C@H]3CC[C@]12C` (some centres unmarked) [Compound 20, Lithocholyl-Phenylalanylhomocysteine Thiolactone], the inhibition at 10 µM at stromelysin (at 10 μM of compound) was 57%. In addition, the inhibition at 50 µM in experiment [1] (setting [2]) was -13%.
